For experiment [1], the target named is human TYK2 (JH2domain-pseudokinase) (Homo sapiens (Human), UniProt P29597). Description: TYK2 JH2 Domain Binding Assay (KINOMEscan). In short, it runs like this:
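Pseudokinase domain binding was measured by qPCR of tagged, bead-retained kinase after 1 h room-temperature competition, with 0.9% DMSO and compound up to 30,000 nM in 3-fold steps. Hill-equation Kd, duplicate.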

In the next experiment the target is Tyk2 kinase domain (DH1) (Homo sapiens (Human), UniProt P29597). The experiment can be described thus: Tyk2 Radioactive Kinase Assay. Format: biochemical. To be noted: compound at 10 μM, ATP 10 μM; for inhibition at 10 µM: read-out: Tyk2 JH1% Inhibition @ 10 μM. In outline: (§1)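 Each kinase domain is incubated with test compound at 10 μM. Activity is then measured radiometrically and expressed as percent inhibition relative to uninhibited enzyme.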
Tyk2 kinase domain (DH1), sequence (P29597 897-1176): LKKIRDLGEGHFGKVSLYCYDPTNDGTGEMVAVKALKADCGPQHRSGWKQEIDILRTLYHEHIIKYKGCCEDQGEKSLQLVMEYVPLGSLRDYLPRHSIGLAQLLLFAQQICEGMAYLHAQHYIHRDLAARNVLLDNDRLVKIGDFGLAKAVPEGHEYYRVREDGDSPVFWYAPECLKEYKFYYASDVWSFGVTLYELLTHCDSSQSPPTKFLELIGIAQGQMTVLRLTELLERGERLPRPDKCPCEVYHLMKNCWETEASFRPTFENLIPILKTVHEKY

Another experiment has as its target JAK2 kinase domain (JH1) (Homo sapiens (Human), UniProt O60674). Description: JAK2 Radioactive Kinase Assay. The format is biochemical. To be noted: compound at 10 μM, ATP 10 μM; for inhibition at 10 µM: read-out: JAK2 JH1% Inhibition @ 10 μM. In short, it runs like this:
as §1

JAK2 kinase domain (JH1), sequence (O60674 849-1124): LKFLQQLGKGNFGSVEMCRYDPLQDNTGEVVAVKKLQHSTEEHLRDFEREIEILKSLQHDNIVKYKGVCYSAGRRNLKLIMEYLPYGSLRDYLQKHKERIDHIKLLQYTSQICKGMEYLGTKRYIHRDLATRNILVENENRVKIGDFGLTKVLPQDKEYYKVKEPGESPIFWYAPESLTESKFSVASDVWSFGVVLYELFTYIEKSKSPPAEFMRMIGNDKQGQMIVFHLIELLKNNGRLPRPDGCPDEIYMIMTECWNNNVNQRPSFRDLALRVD
human TYK2 (JH2domain-pseudokinase), sequence (P29597 556-888): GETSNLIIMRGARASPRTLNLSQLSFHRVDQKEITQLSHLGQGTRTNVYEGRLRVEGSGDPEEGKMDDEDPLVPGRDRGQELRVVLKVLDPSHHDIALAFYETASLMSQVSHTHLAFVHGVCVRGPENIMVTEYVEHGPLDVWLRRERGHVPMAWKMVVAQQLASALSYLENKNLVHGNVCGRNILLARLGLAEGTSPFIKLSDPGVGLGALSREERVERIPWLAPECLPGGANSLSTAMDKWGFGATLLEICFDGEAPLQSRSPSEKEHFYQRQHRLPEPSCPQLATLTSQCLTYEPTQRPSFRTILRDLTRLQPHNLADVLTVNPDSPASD

Regarding `CNc1cc(Nc2cccnc2OC)nc2c(C(=O)N[C@H]3CC[C@H](O)C3)cnn12` [I-487], the Kd (usually the equilibrium constant for the complex coming apart) in experiment [1] was less than 0.2 nM. The “Tyk2 JH1% Inhibition @ 10 μM” value at Tyk2 kinase domain (DH1) is “A (percent inhibition at 10 μM lower than 50)”. Moreover, the “JAK2 JH1% Inhibition @ 10 μM” value on JAK2 kinase domain (JH1) was “A (percent inhibition at 10 μM lower than 50)”.
Turning to `CNc1cc(Nc2cccnc2OC)nc2c(C(=O)N[C@@H]3CC[C@@H](O)C3)cnn12` [I-488], the Kd in experiment [1] was less than 0.2 nM. Further, the inhibition at 10 µM at Tyk2 kinase domain (DH1) and on JAK2 kinase domain (JH1) was less than 50% in each case.
The compound `CNc1cc(Nc2cccnc2OC2CC2)nc2c(C(=O)N[C@@H]3CC[C@@H](O)C3)cnn12` [I-490, 5-((2-cyclopropoxypyridin-3-yl)amino)-N-((1R,3R)-3-hydroxycyclopentyl)-7-(methylamino)pyrazolo[1,5-a]pyrimidine-3-carboxamide] came in with a Kd in experiment [1] of less than 0.2 nM. The inhibition at 10 µM on Tyk2 kinase domain (DH1) and on JAK2 kinase domain (JH1) was less than 50% in each case.
Turning to `CNc1cc(Nc2cccn([C@H]3CCC[C@H]3OC)c2=O)nc2c(C(=O)NC3CC3)cnn12` [I-491], the Kd in experiment [1] is 1 to 10 nM. Further, the inhibition at 10 µM on Tyk2 kinase domain (DH1) and at JAK2 kinase domain (JH1) was less than 50% throughout.
Compound `CNc1cc(Nc2cccnc2OC2CC2)nc2c(C(=O)NC(C)(C)C#N)cnn12` [I-492, N-(2-cyanopropan-2-yl)-5-((2-cyclopropoxypyridin-3-yl)amino)-7-(methylamino)pyrazolo[1,5-a]pyrimidine-3-carboxamide] gave a Kd in experiment [1] of less than 0.2 nM. The inhibition at 10 µM on Tyk2 kinase domain (DH1) and on JAK2 kinase domain (JH1) was less than 50% throughout.
Consider `[2H]C([2H])([2H])Oc1ncccc1Nc1cc(NC)n2ncc(C(=O)NC(C)(C)C#N)c2n1` [I-493, N-(2-cyanopropan-2-yl)-5-((2-(methoxy-d3)pyridin-3-yl)amino)-7-(methylamino)pyrazolo[1,5-a]pyrimidine-3-carboxamide], for which the Kd in experiment [1] was 0.2 to 1 nM. The inhibition at 10 µM at Tyk2 kinase domain (DH1) and on JAK2 kinase domain (JH1) was less than 50% throughout.
As to `CNc1cc(Nc2cc(F)cn(C3CCCOC3)c2=O)nc2c(C(=O)NC3CC3)cnn12` (stereo not drawn) [I-494], in experiment [1], the Kd lay within 0.2 to 1 nM. Also, the inhibition at 10 µM on Tyk2 kinase domain (DH1) and on JAK2 kinase domain (JH1) was less than 50% throughout.
As for `CNc1cc(Nc2cccnc2OC)nc2c(C(=O)N[C@H]3CCC[C@H](O)C3)cnn12` [I-496], the Kd in experiment [1] was less than 0.2 nM. Also, the inhibition at 10 µM at Tyk2 kinase domain (DH1) and on JAK2 kinase domain (JH1) was less than 50% each time.
For the compound `CNc1cc(Nc2cccnc2OC)nc2c(C(=O)N[C@@H]3CCC[C@@H](O)C3)cnn12` [I-497], the Kd in experiment [1] is less than 0.2 nM. For the same compound, the “Tyk2 JH1% Inhibition @ 10 μM” value on Tyk2 kinase domain (DH1) is reported as “A (percent inhibition at 10 μM lower than 50)”. For the same compound, the “JAK2 JH1% Inhibition @ 10 μM” value on JAK2 kinase domain (JH1) is recorded as “A (percent inhibition at 10 μM lower than 50)”.
As to `[2H]C([2H])([2H])Oc1ncccc1Nc1cc(NC)n2ncc(C(=O)N[C@H]3CCC[C@H](O)C3)c2n1` [I-498], the Kd in experiment [1] was less than 0.2 nM. Further, the “Tyk2 JH1% Inhibition @ 10 μM” value at Tyk2 kinase domain (DH1) is listed as “A (percent inhibition at 10 μM lower than 50)”. Besides, the “JAK2 JH1% Inhibition @ 10 μM” value at JAK2 kinase domain (JH1) is reported as “A (percent inhibition at 10 μM lower than 50)”.
`[2H]C([2H])([2H])Oc1ncccc1Nc1cc(NC)n2ncc(C(=O)N[C@@H]3CC[C@@H](O)C3)c2n1` [I-501] came in with a Kd in experiment [1] of less than 0.2 nM. Besides, the inhibition at 10 µM at Tyk2 kinase domain (DH1) and at JAK2 kinase domain (JH1) was less than 50% each time.
On to `CNc1cc(Nc2cccn(C3=NC(C)(C)CS3)c2=O)nc2c(C(=O)NC3CC3)cnn12` [I-502], for which, in experiment [1], the Kd lay in the range of 0.2 to 1 nM. Further, the inhibition at 10 µM at Tyk2 kinase domain (DH1) and on JAK2 kinase domain (JH1) was less than 50% in each case.
For the compound `CNc1cc(Nc2cccn(C3=NC(C)(C)CS3)c2=O)nc2c(C(=O)NC3CCC3)cnn12` [I-503], the Kd in experiment [1] lay within 0.2 to 1 nM. The inhibition at 10 µM on Tyk2 kinase domain (DH1) and on JAK2 kinase domain (JH1) was less than 50% in each case.
The compound `CNc1cc(Nc2cccn(-c3nn(C)c(C)c3C)c2=O)nc2c(C(=O)NC3CC3)cnn12` [I-504] registered a Kd in experiment [1] of 0.2 to 1 nM. Also, the inhibition at 10 µM at Tyk2 kinase domain (DH1) and at JAK2 kinase domain (JH1) was less than 50% throughout.
As to `CNc1cc(Nc2cccn(-c3nn(C)c(C)c3C)c2=O)nc2c(C(=O)N[C@@H]3C[C@@H]3F)cnn12` [I-505], in experiment [1], the Kd is 0.2 to 1 nM. For the same compound, the inhibition at 10 µM on Tyk2 kinase domain (DH1) and at JAK2 kinase domain (JH1) was less than 50% in each case.
Compound `CNc1cc(Nc2cccn(C3CCCN(C)C3)c2=O)nc2c(C(=O)N[C@@H]3C[C@@H]3F)cnn12` (stereo partly drawn) [I-506] had a Kd in experiment [1] of less than 0.2 nM. The inhibition at 10 µM on Tyk2 kinase domain (DH1) and at JAK2 kinase domain (JH1) was less than 50% in each case.
With `CNc1cc(Nc2cccn([C@@H]3CCC[C@@H]3OC)c2=O)nc2c(C(=O)N[C@@H]3C[C@@H]3F)cnn12` [I-507], the Kd in experiment [1] lay within 0.2 to 1 nM. Further, the inhibition at 10 µM on Tyk2 kinase domain (DH1) and on JAK2 kinase domain (JH1) was less than 50% each time.
`CNc1cc(Nc2cccc(C3CCCOC3)n2)nc2c(C(=O)NC3CC3)cnn12` (stereo not drawn) [I-508]: the Kd in experiment [1] fell in the range of 0.2 to 1 nM. Besides, the inhibition at 10 µM at Tyk2 kinase domain (DH1) and at JAK2 kinase domain (JH1) was less than 50% throughout.
In experiment [1], `CNc1cc(Nc2cccn(C3CCOCC3)c2=O)nc2c(C(=O)NCC(C)(C)CO)cnn12` [I-509] returned a Kd of less than 0.2 nM. Besides, the inhibition at 10 µM on Tyk2 kinase domain (DH1) and at JAK2 kinase domain (JH1) was less than 50% each time.
`CNc1cc(Nc2cccn([C@H]3CCCN(C)C3)c2=O)nc2c(C(=O)NC3CC3)cnn12` [I-511] registered an equilibrium dissociation constant (Kd) in experiment [1] of 0.2 to 1 nM. The inhibition at 10 µM on Tyk2 kinase domain (DH1) and at JAK2 kinase domain (JH1) was less than 50% throughout.
`CNc1cc(Nc2cccn([C@@H]3CCCN(C)C3)c2=O)nc2c(C(=O)NC3CC3)cnn12` [I-512] came in with a Kd in experiment [1] of less than 0.2 nM. Also, the inhibition at 10 µM on Tyk2 kinase domain (DH1) and on JAK2 kinase domain (JH1) was less than 50% throughout.
In the case of `CNc1cc(Nc2cccn(CCOC3CC3)c2=O)nc2c(C(=O)N[C@@H]3CC[C@H]3O)cnn12` [I-513], the Kd in experiment [1] is less than 0.2 nM. The “Tyk2 JH1% Inhibition @ 10 μM” value on Tyk2 kinase domain (DH1) was “A (percent inhibition at 10 μM lower than 50)”. The “JAK2 JH1% Inhibition @ 10 μM” value at JAK2 kinase domain (JH1) was “A (percent inhibition at 10 μM lower than 50)”.
For the compound `CNc1cc(Nc2cccn(CCOC3CC3)c2=O)nc2c(C(=O)N[C@H]3CC[C@@H]3O)cnn12` [I-514, 5-((1-(2-cyclopropoxyethyl)-2-oxo-1,2-dihydropyridin-3-yl)amino)-N-((1 S,2S)-2-hydroxycyclobutyl)-7-(methylamino)pyrazolo[1,5-a]pyrimidine-3-carboxamide], in experiment [1], the Kd lay in the range of 1 to 10 nM. Moreover, the inhibition at 10 µM on Tyk2 kinase domain (DH1) and at JAK2 kinase domain (JH1) was less than 50% throughout.
`CNc1cc(Nc2cccn(CCOC3CC3)c2=O)nc2c(C(=O)N[C@@H]3CC[C@@H]3O)cnn12` [I-516] displayed a Kd in experiment [1] of 1 to 10 nM. Moreover, the “Tyk2 JH1% Inhibition @ 10 μM” value at Tyk2 kinase domain (DH1) was “A (percent inhibition at 10 μM lower than 50)”. Also, the “JAK2 JH1% Inhibition @ 10 μM” value at JAK2 kinase domain (JH1) was “A (percent inhibition at 10 μM lower than 50)”.
The compound `CNc1cc(-c2nn([C@@H]3CCOC3)c3ncccc23)nc2c(C(=O)N[C@@H]3C[C@@H]3F)cnn12` [I-517] returned a Kd in experiment [1] of 0.2 to 1 nM. In addition, the inhibition at 10 µM at Tyk2 kinase domain (DH1) and at JAK2 kinase domain (JH1) was less than 50% throughout.
In experiment [1], `CNc1cc(-c2nn([C@H]3CCOC3)c3ncccc23)nc2c(C(=O)N[C@@H]3C[C@@H]3F)cnn12` [I-518] registered a Kd of 0.2 to 1 nM. In addition, the inhibition at 10 µM at Tyk2 kinase domain (DH1) and at JAK2 kinase domain (JH1) was less than 50% each time.
The compound `CNc1cc(Nc2cccn(C3=NC(C)(C)CS3)c2=O)nc2c(C(=O)N[C@@H]3C[C@@H]3F)cnn12` [I-526] showed a Kd in experiment [1] of 0.2 to 1 nM. The inhibition at 10 µM at Tyk2 kinase domain (DH1) and on JAK2 kinase domain (JH1) was less than 50% each time.

Values taken from patent publication US10508120B2, “TYK2 inhibitors and uses thereof” (Nimbus Lakshmi, Inc., priority 2017, dated 2019).
